Reference: the supplement of paper PMC11208160
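Further: IS621 recombinase and bridge RNA in Escherichia coli cells.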

Experiment: recombinant barcode read abundance after kanamycin selection (control-corrected) (log10(CPM+1)); higher = more efficient recombination; sequences stand for … in AGTGCAGAGAAAATCGGCCAGTTTTCTCTGCCTGCAGTCCGCATGCCGT…AGATTTATGCAGCGGACTGCCTTTCTCCCAAAGTGATAAACCGGACAGTATCATGGACCGGTTTTCCCGGTAATCCGTATTTGCAAGGTTGGTTTCACT; site = the 11-nt target
Protocol: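 Pooled E. coli target-specificity screen for the IS621 bridge recombinase. Each library plasmid pairs an 11-nt target (CT core) with a bridge RNA whose target-binding loop (9-nt LTG + 4-nt RTG) is reprogrammed; the rest of the 177-nt WT IS621 bridge RNA scaffold is fixed. The plasmid is co-electroporated with a WT donor plasmid; recombinase is induced with 0.1 mM IPTG and recombinants are selected on kanamycin. Recombinant barcodes are sequenced, converted to CPM, averaged over two biological replicates and corrected by the unselected control CPM. Molecule = full bridge RNA written as DNA: LTG = specificity nt 1-9, RTG = reverse complement of specificity nt 8-11, in the WT scaffold.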
In the case of “AAGTCCTCTTGGGTTCTAACCTGTTGCTT (site AAGCCCTCTAA)”, the “recombinant barcode read abundance (log10)” value is reported as 0.682.
In the case of “AAGTCCTCTTGGGTTCTAACCTGTTGCTT (site AAGGCCTCTAA)”, the “recombinant barcode read abundance (log10)” value is reported as 0.153.
For “AAGTCCTCTTGGGTTCTAACCTGTTGCTT (site AAGTCCTCTAA)”, the “recombinant barcode read abundance (log10)” value was 1.48.
In the case of “AAGTCGACTTGGGTTCTAACCTGTTGCCT (site AAGTCGACTAG)”, the “recombinant barcode read abundance (log10)” value is reported as 0.76.
In the case of “AAGTCGACTTGGGTTCTAACCTGTTGCCT (site AAGTGGACTAG)”, the “recombinant barcode read abundance (log10)” value is reported as 0.0428.
In the case of “AAGTGAGCTTGGGTTCTAACCTGTTGCCA (site AAGTGAGCTTG)”, the “recombinant barcode read abundance (log10)” value is reported as 0.408.
In the case of “AAGTGAGCTTGGGTTCTAACCTGTTGCCA (site CTCCTCTCTAT)”, the “recombinant barcode read abundance (log10)” value is reported as 0.0964.
For “AAGTTTACTTGGGTTCTAACCTGTTGCCT (site AAGTTTACTAA)”, the “recombinant barcode read abundance (log10)” value was 0.0435.
In the case of “AAGTTTACTTGGGTTCTAACCTGTTGCCT (site AAGTTTACTAG)”, the “recombinant barcode read abundance (log10)” value is reported as 0.0875.
For “AATAAGACTTGGGTTCTAACCTGTTGCCA (site AATAAGACTTG)”, the “recombinant barcode read abundance (log10)” value was 0.65.
In the case of “AATAAGACTTGGGTTCTAACCTGTTGCCA (site AATAGGACTTA)”, the “recombinant barcode read abundance (log10)” value is reported as 0.134.
With “AATAAGTCTTGGGTTCTAACCTGTTGCAT (site AATAAGTCTAT)” the “recombinant barcode read abundance (log10)” value was 0.385.
With “AATAAGTCTTGGGTTCTAACCTGTTGCAT (site CTCGCTCCTCA)” the “recombinant barcode read abundance (log10)” value was 0.0524.
In the case of “AATAGGCCTTGGGTTCTAACCTGTTGCGT (site AATAGGCCTAC)”, the “recombinant barcode read abundance (log10)” value is reported as 1.6.
For “AATAGGCCTTGGGTTCTAACCTGTTGCGT (site AATCGGCCTAC)”, the “recombinant barcode read abundance (log10)” value was 0.163.
For “AATAGGCCTTGGGTTCTAACCTGTTGCGT (site AATGGGCCTAC)”, the “recombinant barcode read abundance (log10)” value was 0.23.
In the case of “AATAGGCCTTGGGTTCTAACCTGTTGCGT (site AATTGGCCTAC)”, the “recombinant barcode read abundance (log10)” value is reported as 0.0726.
In the case of “AATCGCACTTGGGTTCTAACCTGTTGCCT (site AATACCACTAG)”, the “recombinant barcode read abundance (log10)” value is reported as 0.
With “AATCGCACTTGGGTTCTAACCTGTTGCCT (site AATCGCACTAG)” the “recombinant barcode read abundance (log10)” value was 0.216.
For “AATGCTCCTTGGGTTCTAACCTGTTGCAT (site AATGCTCCTAA)”, the “recombinant barcode read abundance (log10)” value was 0.0259.
For “AATGCTCCTTGGGTTCTAACCTGTTGCAT (site AATGCTCCTAC)”, the “recombinant barcode read abundance (log10)” value was 0.532.
For “AATGCTCCTTGGGTTCTAACCTGTTGCAT (site AATGCTCCTAG)”, the “recombinant barcode read abundance (log10)” value was 0.248.
For “AATGCTCCTTGGGTTCTAACCTGTTGCAT (site AATGCTCCTAT)”, the “recombinant barcode read abundance (log10)” value was 0.533.
In the case of “AATGCTCCTTGGGTTCTAACCTGTTGCCT (site AATGCTCCTAA)”, the “recombinant barcode read abundance (log10)” value is reported as 0.0483.
With “AATGCTCCTTGGGTTCTAACCTGTTGCCT (site AATGCTCCTAC)” the “recombinant barcode read abundance (log10)” value was 0.158.
With “AATGCTCCTTGGGTTCTAACCTGTTGCCT (site AATGCTCCTAG)” the “recombinant barcode read abundance (log10)” value was 0.561.
In the case of “AATGCTCCTTGGGTTCTAACCTGTTGCCT (site AATGCTCCTAT)”, the “recombinant barcode read abundance (log10)” value is reported as 0.0129.
With “AATGGGCCTTGGGTTCTAACCTGTTGCGT (site AATAGGCCTAC)” the “recombinant barcode read abundance (log10)” value was 1.71.
For “AATGGGCCTTGGGTTCTAACCTGTTGCGT (site AATCGGCCTAC)”, the “recombinant barcode read abundance (log10)” value was 0.048.
In the case of “AATGGGCCTTGGGTTCTAACCTGTTGCGT (site AATGGGCCTAC)”, the “recombinant barcode read abundance (log10)” value is reported as 2.4.
With “AATGGGCCTTGGGTTCTAACCTGTTGCGT (site AATTGGCCTAC)” the “recombinant barcode read abundance (log10)” value was 0.765.
For “AATGGGGCTTGGGTTCTAACCTGTTGCAG (site AATGGGGCTCT)”, the “recombinant barcode read abundance (log10)” value was 2.51.
In the case of “AATGGGGCTTGGGTTCTAACCTGTTGCAG (site CGGCCACCTAA)”, the “recombinant barcode read abundance (log10)” value is reported as 0.185.
In the case of “AATGGGTCTTGGGTTCTAACCTGTTGCTT (site AATGGGTCTAA)”, the “recombinant barcode read abundance (log10)” value is reported as 1.71.
With “AATGGGTCTTGGGTTCTAACCTGTTGCTT (site CCACTAGCTCT)” the “recombinant barcode read abundance (log10)” value was 0.0323.
In the case of “AATTGGCCTTGGGTTCTAACCTGTTGCGT (site AATAGGCCTAC)”, the “recombinant barcode read abundance (log10)” value is reported as 0.425.
For “AATTGGCCTTGGGTTCTAACCTGTTGCGT (site AATCGGCCTAC)”, the “recombinant barcode read abundance (log10)” value was 0.976.
With “AATTGGCCTTGGGTTCTAACCTGTTGCGT (site AATGGGCCTAC)” the “recombinant barcode read abundance (log10)” value was 0.376.
In the case of “AATTGGCCTTGGGTTCTAACCTGTTGCGT (site AATTGGCCTAC)”, the “recombinant barcode read abundance (log10)” value is reported as 0.673.
For “ACAAACCCTTGGGTTCTAACCTGTTGCCT (site ACAAAACCTAG)”, the “recombinant barcode read abundance (log10)” value was 0.214.
With “ACAAACCCTTGGGTTCTAACCTGTTGCCT (site ACAAACCCTAG)” the “recombinant barcode read abundance (log10)” value was 0.812.
For “ACAAACCCTTGGGTTCTAACCTGTTGCCT (site ACAAAGCCTAG)”, the “recombinant barcode read abundance (log10)” value was 0.159.
With “ACAAACCCTTGGGTTCTAACCTGTTGCCT (site ACAAATCCTAG)” the “recombinant barcode read abundance (log10)” value was 0.0456.
In the case of “ACAAAGCCTTGGGTTCTAACCTGTTGCCT (site ACAAAACCTAG)”, the “recombinant barcode read abundance (log10)” value is reported as 0.49.
For “ACAAAGCCTTGGGTTCTAACCTGTTGCCT (site ACAAACCCTAG)”, the “recombinant barcode read abundance (log10)” value was 0.0556.
In the case of “ACAAAGCCTTGGGTTCTAACCTGTTGCCT (site ACAAAGCCTAG)”, the “recombinant barcode read abundance (log10)” value is reported as 0.85.
In the case of “ACAAAGCCTTGGGTTCTAACCTGTTGCCT (site ACAAATCCTAG)”, the “recombinant barcode read abundance (log10)” value is reported as 0.0552.
In the case of “ACAAATACTTGGGTTCTAACCTGTTGCGG (site ACAAATACTCC)”, the “recombinant barcode read abundance (log10)” value is reported as 0.905.
In the case of “ACAAATACTTGGGTTCTAACCTGTTGCGG (site CGTTCACCTAT)”, the “recombinant barcode read abundance (log10)” value is reported as 0.11.
For “ACAAGCCCTTGGGTTCTAACCTGTTGCCT (site AAAAGCCCTAG)”, the “recombinant barcode read abundance (log10)” value was 0.189.
In the case of “ACAAGCCCTTGGGTTCTAACCTGTTGCCT (site ACAAGCCCTAG)”, the “recombinant barcode read abundance (log10)” value is reported as 0.643.
For “ACAAGCCCTTGGGTTCTAACCTGTTGCCT (site AGAAGCCCTAG)”, the “recombinant barcode read abundance (log10)” value was 0.0546.
In the case of “ACAAGCCCTTGGGTTCTAACCTGTTGCCT (site ATAAGCCCTAG)”, the “recombinant barcode read abundance (log10)” value is reported as 0.0711.
For “ACAAGGCCTTGGGTTCTAACCTGTTGCCT (site ACAAGGCCTAG)”, the “recombinant barcode read abundance (log10)” value was 0.16.
For “ACAAGGCCTTGGGTTCTAACCTGTTGCCT (site CCAAGGCCTAG)”, the “recombinant barcode read abundance (log10)” value was 0.784.
For “ACAAGGCCTTGGGTTCTAACCTGTTGCCT (site GCAAGGCCTAG)”, the “recombinant barcode read abundance (log10)” value was 0.126.
In the case of “ACAAGGCCTTGGGTTCTAACCTGTTGCCT (site TCAAGGCCTAG)”, the “recombinant barcode read abundance (log10)” value is reported as 0.0644.
In the case of “ACAATAGCTTGGGTTCTAACCTGTTGCCT (site ACAATACCTCG)”, the “recombinant barcode read abundance (log10)” value is reported as 0.0732.
In the case of “ACAATAGCTTGGGTTCTAACCTGTTGCCT (site ACAATAGCTAG)”, the “recombinant barcode read abundance (log10)” value is reported as 1.64.
In the case of “ACACAGACTTGGGTTCTAACCTGTTGCGC (site ACAAAGACTGC)”, the “recombinant barcode read abundance (log10)” value is reported as 0.174.
In the case of “ACACAGACTTGGGTTCTAACCTGTTGCGC (site ACACAGACTGC)”, the “recombinant barcode read abundance (log10)” value is reported as 1.08.
With “ACACAGACTTGGGTTCTAACCTGTTGCGC (site ACAGAGACTGC)” the “recombinant barcode read abundance (log10)” value was 0.114.
With “ACACAGACTTGGGTTCTAACCTGTTGCGC (site ACATAGACTGC)” the “recombinant barcode read abundance (log10)” value was 0.00702.
For “ACACCCTCTTGGGTTCTAACCTGTTGCTT (site ACACCCTCTAA)”, the “recombinant barcode read abundance (log10)” value was 2.5.
With “ACACCCTCTTGGGTTCTAACCTGTTGCTT (site CGACCCTCTAA)” the “recombinant barcode read abundance (log10)” value was 0.208.
With “ACAGAATCTTGGGTTCTAACCTGTTGCCT (site ACAGAATCTAG)” the “recombinant barcode read abundance (log10)” value was 1.69.
With “ACAGAATCTTGGGTTCTAACCTGTTGCCT (site ACAGGATCTAA)” the “recombinant barcode read abundance (log10)” value was 0.0318.
In the case of “ACAGACGCTTGGGTTCTAACCTGTTGCCT (site ACAGACGCTAG)”, the “recombinant barcode read abundance (log10)” value is reported as 0.721.
In the case of “ACAGACGCTTGGGTTCTAACCTGTTGCCT (site ACAGCCGCTAG)”, the “recombinant barcode read abundance (log10)” value is reported as 0.151.
With “ACAGACGCTTGGGTTCTAACCTGTTGCCT (site ACAGGCGCTAG)” the “recombinant barcode read abundance (log10)” value was 0.163.
In the case of “ACAGACGCTTGGGTTCTAACCTGTTGCCT (site ACAGTCGCTAG)”, the “recombinant barcode read abundance (log10)” value is reported as 0.0906.
For “ACAGAGACTTGGGTTCTAACCTGTTGCTA (site ACAGAGACTGT)”, the “recombinant barcode read abundance (log10)” value was 0.121.
For “ACAGAGACTTGGGTTCTAACCTGTTGCTA (site ACAGAGACTTA)”, the “recombinant barcode read abundance (log10)” value was 1.35.
With “ACAGTAGCTTGGGTTCTAACCTGTTGCGG (site ACAGTAGCTCC)” the “recombinant barcode read abundance (log10)” value was 1.81.
In the case of “ACAGTAGCTTGGGTTCTAACCTGTTGCGG (site ACAGTAGCTCG)”, the “recombinant barcode read abundance (log10)” value is reported as 0.248.
For “ACAGTGACTTGGGTTCTAACCTGTTGCCT (site ACAATGACTAG)”, the “recombinant barcode read abundance (log10)” value was 1.23.
For “ACAGTGACTTGGGTTCTAACCTGTTGCCT (site ACAGTGACTAG)”, the “recombinant barcode read abundance (log10)” value was 2.49.
For “ACAGTGGCTTGGGTTCTAACCTGTTGCGG (site ACAGTGGCTCC)”, the “recombinant barcode read abundance (log10)” value was 1.53.
With “ACAGTGGCTTGGGTTCTAACCTGTTGCGG (site CTTCGCCCTAA)” the “recombinant barcode read abundance (log10)” value was 0.0955.
With “ACAGTGTCTTGGGTTCTAACCTGTTGCGG (site ACAATGTCTCC)” the “recombinant barcode read abundance (log10)” value was 1.37.
For “ACAGTGTCTTGGGTTCTAACCTGTTGCGG (site ACACTGTCTCC)”, the “recombinant barcode read abundance (log10)” value was 0.0611.
For “ACAGTGTCTTGGGTTCTAACCTGTTGCGG (site ACAGTGTCTCC)”, the “recombinant barcode read abundance (log10)” value was 2.77.
